Data reported in US20090196869A1, “ANTITUMOR COMBINATIONS CONTAINING TAXANE DERIVATIVES” (SANOFI-AVENTIS, priority 2006, published 2009).

Key:
[1] = test system: Human breast carcinoma UISO-BCA-1; experiment: Antitumor activity in Human Mammary UISO-BCA-1 xenografted in nude mice (3-arm dose-response); format: in vivo; details: for sensitivity of the UISO-BCA-1 xenograft to the agent: characterisation of the tumor model, monotherapy; for (T-C) days / CR / TFS d121 / log cell kill: acetocyclopropyl taxotere alone, day 17, 21, 25
Protocol: This efficacy may be quantified, for example, by the log10 cells killed, which is determined according to the following formula: […]
A product is considered to be active if log10 cells killed is greater than or equal to 0.7. A product is considered to be very active if log10 cells killed is greater than 2.8.
The combination, used at its own maximum tolerated dose, in which each of the constituents will be present at a dose generally not exceeding its maximum tolerated dose, will manifest therapeutic synergy when the log10 cells killed is greater than the value of the log10 cells killed of the best constituent when it is administered alone.
(§1) The animals subjected to the experiment, generally mice, are subcutaneously grafted bilaterally with 30 to 60 mg of a tumor fragment on day 0. The animals bearing tumors are mixed before being subjected to the various treatments and controls. In the case of treatment of advanced tumors, tumors are allowed to develop to the desired size, animals having insufficiently developed tumors being eliminated. The selected animals are distributed at random to undergo the treatments and controls. […] The different animal groups are weighed 3 or 4 times a week until the maximum weight loss is reached, and the groups are then weighed at least once a week until the end of the trial.
The tumors are measured 2 or 3 times a week until the tumor reaches approximately 2 g, or until the animal dies if this occurs before the tumor reaches 2 g. The animals are autopsied when sacrificed.
The tumor model used to evaluate each drug combination was selected, in general, on the basis of its responsiveness to each of the agents when used as monotherapy. Using i.v. intermittent schedules, full dose response trials were conducted for each single agent and each combination. In the present case, the selected tumor was a Human breast carcinoma UISO-BCA-1 derived from a malignant pleural effusion. The primary tumor was well-differentiated infiltrating ductal carcinoma of the breast. Radiotherapy post mastectomy was practiced. Three years after, chemotherapy to treat a left supraclavicular mass was done (10 courses with cytoxan, methotrexate, 5-Fu and Tamoxifen). […] This tumor model was established in nude mice from a 2.10^7 cell implant, and maintained by serial sc passage as tumor fragment.

[2] = Toxicity (drug deaths, body weight loss, highest non-toxic dose) in tumor-bearing nude mice; format: in vivo; details: for % bwl at nadir / Drug deaths: acetocyclopropyl taxotere alone, day 17, 21, 25
Protocol: as §1

[3] = iv 12.4 mg/kg/day (total 37.2 mg/kg)
[4] = iv 20.0 mg/kg/day (total 60.0 mg/kg)
[5] = iv 32.3 mg/kg/day (total 96.9 mg/kg)
[6] = iv 52.1 mg/kg/day (total 156.3 mg/kg)
[7] = single agent, iv day 17, 21, 25

SMILES: CC(=O)O[C@@]12CO[C@@H]1C[C@H](O)[C@@]1(C)C(=O)[C@H](O)C3=C(C)[C@@H](OC(=O)[C@H](O)[C@@H](NC(=O)OC(C)(C)C)c4ccccc4)C[C@@](O)([C@@H](OC(=O)c4ccccc4)[C@H]21)C3(C)C [docetaxel, reference compound]
- sensitivity of the UISO-BCA-1 xenograft to the agent [1]: resistant

SMILES: CC(=O)O[C@H]1C(=O)[C@]23C[C@H]2C[C@H]2OC[C@@]2(OC(C)=O)[C@H]3[C@H](OC(=O)c2ccccc2)[C@]2(O)CC(OC(=O)[C@H](O)C(NC(=O)OC(C)(C)C)c3ccccc3)C(C)=C1C2(C)C (some centres unmarked) [acetocyclopropyl taxotere]
- % bwl at nadir [2, 3]: 0.5%
- Drug deaths [2, 3]: 0/8
- % bwl at nadir [2, 4]: 0.5%
- Drug deaths [2, 4]: 0/8
- % bwl at nadir [2, 5]: 5.2%
- Drug deaths [2, 5]: 0/8
- % bwl at nadir [2, 6]: 7.2%
- Drug deaths [2, 6]: 2/8
- highest non-toxic dose [2, 7]: 32.3 mg/kg per injection
- highest non-toxic dose, total dose [2, 7]: 96.9 mg/kg
- (T-C) days [1, 3]: 1.8 days
- CR [1, 3]: 0/8
- TFS d121 [1, 3]: 0/8
- log cell kill [1, 3]: 0.1
- (T-C) days [1, 4]: 6.0 days
- CR [1, 4]: 0/8
- TFS d121 [1, 4]: 0/8
- log cell kill [1, 4]: 0.4
- (T-C) days [1, 5]: 20.8 days
- CR [1, 5]: 0/8
- TFS d121 [1, 5]: 0/8
- log cell kill [1, 5]: 1.3
- CR ([1]; iv 32.3 mg/kg/day (total 96.9 mg/kg), listed as acetyl cyclopropyl docetaxel): no regression
- sensitivity of the UISO-BCA-1 xenograft to the agent [1]: sensitive

SMILES: O=c1[nH]cc(F)c(=O)[nH]1 [5-Fluorouracil, reference compound]
- sensitivity of the UISO-BCA-1 xenograft to the agent [1]: sensitive

SMILES: CC[C@]1(O)C[C@H]2CN(CCc3c([nH]c4ccccc34)[C@@](C(=O)OC)(c3cc4c(cc3OC)N(C=O)[C@H]3[C@@](O)(C(=O)OC)[C@H](OC(C)=O)[C@]5(CC)C=CCN6CC[C@]43[C@@H]65)C2)C1 [vincristine, reference compound]
- sensitivity of the UISO-BCA-1 xenograft to the agent [1]: poorly sensitive

SMILES: COc1cccc2c1C(=O)c1c(O)c3c(c(O)c1C2=O)C[C@@](O)(C(=O)CO)C[C@@H]3O[C@H]1C[C@H](N)[C@H](O)[C@H](C)O1 [doxorubicin, reference compound]
- sensitivity of the UISO-BCA-1 xenograft to the agent [1]: poorly sensitive

SMILES: O=P1(N(CCCl)CCCl)NCCCO1 (centres unmarked) [cyclophosphamide, reference compound]
- sensitivity of the UISO-BCA-1 xenograft to the agent [1]: poorly sensitive
